Consider two compounds from ChEMBL document CHEMBL5346903, “Discovery of novel and bioavailable histone deacetylases and cyclin-dependent kinases dual inhibitor to impair the stemness of leukemia cells” (Eur J Med Chem, 2023).

pIC50: −log10 of the molar value.

One data set has as its target Histone deacetylase 2 (Homo sapiens, UniProt Q92769). The data set can be described thus: Inhibition of HDAC2 in human nuclear extract using Ac-Arg-Gly-Lys(Ac)-AMC as substrate at 1 uM incubated overnight by fluorescence based assay relative to control. Particulars: HeLa, Nucleus. Type of data set: subcellular.
For another data set, the target named is Histone deacetylase 8 (Homo sapiens, UniProt Q9BY41). The experiment in a line: Inhibition of recombinant human HDAC8 using HDAC substrate incubated for 30 mins by fluorescence based assay.
Sequence of Histone deacetylase 8 (Q9BY41 whole entry): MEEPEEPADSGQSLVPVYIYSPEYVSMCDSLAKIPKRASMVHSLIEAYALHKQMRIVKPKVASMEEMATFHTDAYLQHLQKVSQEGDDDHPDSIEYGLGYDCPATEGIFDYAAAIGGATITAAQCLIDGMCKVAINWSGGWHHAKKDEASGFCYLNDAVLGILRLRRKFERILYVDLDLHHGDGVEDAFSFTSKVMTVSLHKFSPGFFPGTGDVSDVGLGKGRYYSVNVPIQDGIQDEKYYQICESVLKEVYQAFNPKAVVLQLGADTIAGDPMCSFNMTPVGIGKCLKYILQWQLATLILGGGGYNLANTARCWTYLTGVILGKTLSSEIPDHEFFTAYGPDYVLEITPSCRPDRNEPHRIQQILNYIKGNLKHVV
The target in data set [1] is CDK1/Cyclin A (Homo sapiens) (UniProt P06493+P20248). The data set can be described thus: Inhibition of CDK1/cyclinA2 (unknown origin) at 100 nM preincubated for 20 mins followed by [gamma-33P]ATP addition measured after 120 mins in presence of ATP by Hot-SpotSM kinase assay relative to control. Conditions: time 140.0 min. Type of data set: protein-complex assay.
Sequence of CDK1/Cyclin A (Homo sapiens) (P06493 whole entry, looked up): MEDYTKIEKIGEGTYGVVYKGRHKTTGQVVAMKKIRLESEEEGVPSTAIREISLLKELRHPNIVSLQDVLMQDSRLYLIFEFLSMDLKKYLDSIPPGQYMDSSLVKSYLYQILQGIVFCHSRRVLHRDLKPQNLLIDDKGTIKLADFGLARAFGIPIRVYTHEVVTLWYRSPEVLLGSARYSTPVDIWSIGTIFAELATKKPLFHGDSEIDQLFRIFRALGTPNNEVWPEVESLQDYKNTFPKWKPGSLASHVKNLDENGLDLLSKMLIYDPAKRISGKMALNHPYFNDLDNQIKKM
Sequence of CDK1/Cyclin A (Homo sapiens) (P20248 whole entry, looked up): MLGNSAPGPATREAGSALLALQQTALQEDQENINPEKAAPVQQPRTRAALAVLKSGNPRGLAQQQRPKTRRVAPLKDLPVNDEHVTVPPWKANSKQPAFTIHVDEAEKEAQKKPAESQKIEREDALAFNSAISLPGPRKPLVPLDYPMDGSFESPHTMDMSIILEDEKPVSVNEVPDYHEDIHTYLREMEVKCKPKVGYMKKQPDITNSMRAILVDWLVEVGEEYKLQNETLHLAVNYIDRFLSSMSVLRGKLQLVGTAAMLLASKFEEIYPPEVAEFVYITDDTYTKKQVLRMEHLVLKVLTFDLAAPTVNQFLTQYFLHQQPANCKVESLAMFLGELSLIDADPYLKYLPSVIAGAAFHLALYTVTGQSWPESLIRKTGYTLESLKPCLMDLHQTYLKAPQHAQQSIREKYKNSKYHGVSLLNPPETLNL
Data set [2] concerns the target Cyclin-dependent kinase 4/cyclin D1 (Homo sapiens) (UniProt P11802+P24385). The data set can be described thus: Inhibition of CDK4/cyclinD1 (unknown origin) at 100 nM preincubated for 20 mins followed by [gamma-33P]ATP addition measured after 120 mins in presence of ATP by Hot-SpotSM kinase assay relative to control. Type of data set: protein-complex assay. Particulars: time 140.0 min.

The target in data set [3] is Cyclin-C/Cyclin-dependent kinase 19 (Homo sapiens) (UniProt Q9BWU1+P24863). The data set can be described thus: Inhibition of CDK19/cyclinC (unknown origin) at 100 nM preincubated for 20 mins followed by [gamma-33P]ATP addition measured after 120 mins in presence of ATP by Hot-SpotSM kinase assay relative to control. The data set is classed as protein-complex assay. Particulars: time 140.0 min.

Data set [4] concerns HL-60. The data set can be described thus: Induction of apoptosis in human HL-60 cells assessed as viable cells at 0.2 uM incubated for 48 hrs by annexin V-FITC/PI satining based flow cytometry (reference value: 97.4 %). Conditions: read-out: Activity. Type of data set: functional. For orientation: In flow cytometry, cells or beads pass a laser one at a time.
Data set [5] has as its system HL-60. The data set can be described thus: Induction of apoptosis in human HL-60 cells assessed as early apoptotic cells at 0.2 uM incubated for 48 hrs by annexin V-FITC/PI satining based flow cytometry (reference value: 1.24 %). Type of data set: functional.
In data set [6] the test system is HL-60. The data set can be described thus: Induction of apoptosis in human HL-60 cells assessed as early apoptotic cells at 0.5 uM incubated for 48 hrs by annexin V-FITC/PI satining based flow cytometry (reference value: 1.24 %). Type of data set: functional.
Data set [7] deals with HL-60. The experiment in a line: Induction of apoptosis in human HL-60 cells assessed as necrotic cells at 2 uM incubated for 48 hrs by annexin V-FITC/PI satining based flow cytometry (reference value: 0.00 %). Type of data set: functional.
The subject of data set [8] is U-937. The experiment in a line: Induction of apoptosis in human U-937 cells assessed as viable cells at 0.5 uM incubated for 48 hrs by annexin V-FITC/PI satining based flow cytometry (reference value: 90.0 %). Type of data set: functional. Particulars: read-out: Activity.
The test system of data set [9] is U-937. The experiment in a line: Induction of apoptosis in human U-937 cells assessed as viable cells at 1 uM incubated for 48 hrs by annexin V-FITC/PI satining based flow cytometry (reference value: 90.0 %). Type of data set: functional. Conditions: read-out: Activity.
The test system of data set [10] is U-937. The data set can be described thus: Induction of apoptosis in human U-937 cells assessed as early apoptotic cells at 0.5 uM incubated for 48 hrs by annexin V-FITC/PI satining based flow cytometry (reference value: 0.945 %). The data set is classed as functional.
The subject of data set [11] is U-937. The experiment in a line: Induction of apoptosis in human U-937 cells assessed as early apoptotic cells at 1 uM incubated for 48 hrs by annexin V-FITC/PI satining based flow cytometry (reference value: 0.945 %). The data set is classed as functional.
The subject of data set [12] is U-937. The data set can be described thus: Induction of apoptosis in human U-937 cells assessed as necrotic cells at 2 uM incubated for 48 hrs by annexin V-FITC/PI satining based flow cytometry (reference value: 1.96 %). Type of data set: functional.
Data set [13] deals with HL-60. The experiment in a line: Induction of differentiation in human HL-60 cells assessed as increase in CD11b positive cells at 0.5 uM incubated for 24 hrs by FITC staining based flow cytometry (reference value: 1.45 %). Type of data set: functional.
Data set [14] relates to HL-60. The experiment in a line: Induction of differentiation in human HL-60 cells assessed as increase in CD11b positive cells at 1 uM incubated for 24 hrs by FITC staining based flow cytometry (reference value: 1.45 %). The data set is classed as functional.
The subject of data set [15] is HL-60. The experiment in a line: Induction of differentiation in human HL-60 cells assessed as increase in CD11b positive cells at 1.5 uM incubated for 24 hrs by FITC staining based flow cytometry (reference value: 1.45 %). Type of data set: functional.
Data set [16] has as its system U-937. The data set can be described thus: Induction of differentiation in human U-937 cells assessed as increase in CD11b positive cells at 1.5 uM incubated for 48 hrs by FITC staining based flow cytometry (reference value: 2.72 %). The data set is classed as functional.
In data set [17] the test system is U-937. The experiment in a line: Induction of differentiation in human U-937 cells assessed as increase in CD11b positive cells at 2 uM incubated for 48 hrs by FITC staining based flow cytometry (reference value: 2.72 %). The data set is classed as functional.
Data set [18] can be described thus: AUC in Sprague-Dawley rat at 5 mg/kg, iv measured upto 6 hrs by LC/MS-MS analysis. Type of data set: ADME, organism-based. Also noted: dose 5 mg/kg, time < 6 hrs, route iv. Particulars: in vivo.
Data set [19] in a line: Tmax in Sprague-Dawley rat at 25 mg/kg, po measured upto 8 hrs by LC/MS-MS analysis. Type of data set: ADME, organism-based. Particulars: in vivo.
Data set [20] is described as follows: Clearance in Sprague-Dawley rat at 25 mg/kg, po measured upto 8 hrs by LC/MS-MS analysis. Type of data set: ADME, organism-based. Conditions: in vivo.
A short description of data set [21]: Bioavailability in Sprague-Dawley rat at 25 mg/kg, po measured upto 8 hrs by LC/MS-MS analysis. Particulars: in vivo. The data set is classed as ADME, organism-based.
The target of data set [22] is Cyclin-dependent kinase 2/cyclin E1 (Homo sapiens) (UniProt P24864+P24941). Particulars: dose 100.0 nM, time 140.0 min.
Data set [23] has as its system HL-60. The experiment in a line: Induction of apoptosis in human HL-60 cells assessed as viable cells at 2.5 uM incubated for 48 hrs by annexin V-FITC/PI satining based flow cytometry (reference value: 94.7 %). Conditions: read-out: Activity. The data set is classed as functional.
The test system of data set [24] is HL-60. The data set can be described thus: Induction of apoptosis in human HL-60 cells assessed as necrotic cells at 2.5 uM incubated for 48 hrs by annexin V-FITC/PI satining based flow cytometry (reference value: 0.04 %). The data set is classed as functional.
Data set [25] has as its system U-937. The data set can be described thus: Induction of apoptosis in human U-937 cells assessed as early apoptotic cells at 2.5 uM incubated for 48 hrs by annexin V-FITC/PI satining based flow cytometry (reference value: 1.93 %). Type of data set: functional.
For data set [26], the system named is U-937. The experiment in a line: Induction of apoptosis in human U-937 cells assessed as late apoptotic cells at 0.6 uM incubated for 48 hrs by annexin V-FITC/PI satining based flow cytometry (reference value: 4.23 %). The data set is classed as functional.
Data set [27] deals with U-937. The data set can be described thus: Induction of apoptosis in human U-937 cells assessed as late apoptotic cells at 5 uM incubated for 48 hrs by annexin V-FITC/PI satining based flow cytometry (reference value: 4.23 %). The data set is classed as functional.
Data set [28] concerns U-937. The experiment in a line: Induction of apoptosis in human U-937 cells assessed as necrotic cells at 2.5 uM incubated for 48 hrs by annexin V-FITC/PI satining based flow cytometry (reference value: 0.102 %). Type of data set: functional.
For a further data set, the system named is Kasumi 1. The data set can be described thus: Cytotoxicity against human Kasumi 1 cells assessed as CD34positive CD38negative leukemic stem cell-like cells sub-population at 0.5 uM incubated for 24 hrs by APC/FITC satining based flow cytometry (reference value: 95.8 %). The data set is classed as functional.
Data set [29] is described as follows: Cytotoxicity against human Kasumi 1 cells assessed as CD34positive CD38negative leukemic stem cell-like cells sub-population at 2 uM incubated for 24 hrs by APC/FITC satining based flow cytometry (reference value: 95.8 %). The data set is classed as functional.

The term inhibition denotes the percentage by which the read-out fell short of the control. Usually pIC50 stands for the negative decadic logarithm of the IC50, by convention in mol/L. What is called AUC is concentration integrated over time. Read a high AUC as more exposure. As a reminder, the Tmax is the time at which the peak concentration occurs. Broadly, the CL/F is the apparent clearance, not corrected for the fraction that reaches the circulation. One may read the bioavailability as dose-corrected exposure relative to a reference, in per cent. A lower bioavailability goes with little systemic uptake.

Sequence of Histone deacetylase 2 (Q92769 whole entry): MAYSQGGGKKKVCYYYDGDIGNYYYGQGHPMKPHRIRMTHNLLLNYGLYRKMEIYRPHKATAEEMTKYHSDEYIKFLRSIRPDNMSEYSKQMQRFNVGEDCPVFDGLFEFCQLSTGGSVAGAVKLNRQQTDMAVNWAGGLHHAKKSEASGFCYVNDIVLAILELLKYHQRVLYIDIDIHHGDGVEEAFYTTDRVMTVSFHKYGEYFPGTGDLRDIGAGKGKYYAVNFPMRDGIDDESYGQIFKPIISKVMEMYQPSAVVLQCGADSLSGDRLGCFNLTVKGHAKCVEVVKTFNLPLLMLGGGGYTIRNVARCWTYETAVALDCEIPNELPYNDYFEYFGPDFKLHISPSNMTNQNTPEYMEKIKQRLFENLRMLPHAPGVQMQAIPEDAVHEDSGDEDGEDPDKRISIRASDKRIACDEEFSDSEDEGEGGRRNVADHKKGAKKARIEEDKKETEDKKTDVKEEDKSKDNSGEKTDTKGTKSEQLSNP

Turning to `Nc1ccccc1NC(=O)c1ccc(NC(=O)c2n[nH]cc2NC(=O)c2c(Cl)cccc2Cl)cc1`, the inhibition was determined as 100% at Histone deacetylase 2; 31% in [1]; 53.7% in data set [2]; 23.1% in data set [3]; 57.5% in data set [22]. Besides, on Histone deacetylase 8, the pIC50 is 6.00. The viability at 0.2 µM in the data set on HL-60 [4] was 96.4%. Besides, the Activity with HL-60 [5] was determined as 1.61%; in the data set on HL-60 [6] it was 2.42%; in the data set with HL-60 [7], 4.87%; in the data set on U-937 [10], 1.99%; with U-937 [11], 1.92%; with U-937 [12], 3.3%. Besides, the Activity amounted to 6.09% in the data set with HL-60 [13]; 37.6% in the data set with HL-60 [14]; 50.9% in the data set on HL-60 [15]; 16% in the data set on U-937 [16]; 18.5% with U-937 [17]. The viability at 0.5 µM with U-937 [8] is 79.8%. Further, the viability at 1 µM in the data set on U-937 [9] came out at 48.9%. Besides, in data set [18], the AUC is 836 ng·h/mL. Also, in data set [19], the time of peak concentration (Tmax) worked out at 45 min. The same compound had a CL/F in data set [20] of 28.8 mL/min/kg. For the same compound, the bioavailability in [21] turned out to be 56.7%.

Consider `Nc1cc(F)ccc1NC(=O)c1ccc(CNC(=O)/C=C/c2cccnc2)cc1` [TUCIDINOSTAT], for which, in the data set on HL-60 [23], the viability at 2.5 µM was 56.1%. The Activity is 0.05% in the data set on HL-60 [24]; 2.67% with U-937 [25]; 4.81% in the data set on U-937 [26]; 22.7% in the data set with U-937 [27]; 0.084% in the data set with U-937 [28]; 93.9% with Kasumi 1. For the same compound, in data set [29], the Activity stood at 77.8%.
